From ChEMBL document CHEMBL4007434, “Indazole-Based Covalent Inhibitors To Target Drug-Resistant Epidermal Growth Factor Receptor” (J Med Chem, 2017)
The source made the active and inactive calls. The rule behind the calls is not given here.

Columns and labels:
[1] = molecular target: T1, Epidermal growth factor receptor (Homo sapiens, UniProt P00533); type: ADME
[2] = molecular target: Tyrosine-protein kinase Blk (Homo sapiens) (UniProt P51451); assay: Inhibition of full-length recombinant human His-tagged cytoplasmic BLK expressed in baculovirus expression system at 1 uM by Z'-LYTE assay
Chain of Tyrosine-protein kinase Blk (Homo sapiens) (P51451 2-505 limits assumed): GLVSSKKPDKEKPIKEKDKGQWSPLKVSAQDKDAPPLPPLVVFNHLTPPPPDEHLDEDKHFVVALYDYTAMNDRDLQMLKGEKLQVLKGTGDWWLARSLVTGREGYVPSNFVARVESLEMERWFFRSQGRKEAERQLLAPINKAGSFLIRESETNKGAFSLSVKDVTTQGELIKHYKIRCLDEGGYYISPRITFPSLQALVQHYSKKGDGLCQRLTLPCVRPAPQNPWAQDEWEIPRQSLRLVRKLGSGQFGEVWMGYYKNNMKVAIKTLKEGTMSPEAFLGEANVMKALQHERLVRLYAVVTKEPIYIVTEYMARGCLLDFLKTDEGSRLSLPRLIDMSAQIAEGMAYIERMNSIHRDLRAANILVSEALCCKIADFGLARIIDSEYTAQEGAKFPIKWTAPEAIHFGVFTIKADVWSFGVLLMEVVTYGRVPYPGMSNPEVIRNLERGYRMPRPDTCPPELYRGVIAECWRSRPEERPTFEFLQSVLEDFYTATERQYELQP

[3] = test system: Epidermal growth factor receptor (Homo sapiens), P00533 [L861Q]; conditions: 1 uM
[4] = test system: Epidermal growth factor receptor (Homo sapiens), P00533 [L858R]; conditions: 1 uM
Liver = assay: Stability in human liver microsomes at 3 uM up to 50 mins by LCMS analysis; type: ADME, microsome
[5] = molecular target: T2, Cytoplasmic tyrosine-protein kinase BMX (Homo sapiens) (UniProt P51813); assay: Inhibition of full-length recombinant human His-tagged cytoplasmic BMX expressed in baculovirus expression system at 1 uM by Z'-LYTE assay
T2 sequence (whole entry): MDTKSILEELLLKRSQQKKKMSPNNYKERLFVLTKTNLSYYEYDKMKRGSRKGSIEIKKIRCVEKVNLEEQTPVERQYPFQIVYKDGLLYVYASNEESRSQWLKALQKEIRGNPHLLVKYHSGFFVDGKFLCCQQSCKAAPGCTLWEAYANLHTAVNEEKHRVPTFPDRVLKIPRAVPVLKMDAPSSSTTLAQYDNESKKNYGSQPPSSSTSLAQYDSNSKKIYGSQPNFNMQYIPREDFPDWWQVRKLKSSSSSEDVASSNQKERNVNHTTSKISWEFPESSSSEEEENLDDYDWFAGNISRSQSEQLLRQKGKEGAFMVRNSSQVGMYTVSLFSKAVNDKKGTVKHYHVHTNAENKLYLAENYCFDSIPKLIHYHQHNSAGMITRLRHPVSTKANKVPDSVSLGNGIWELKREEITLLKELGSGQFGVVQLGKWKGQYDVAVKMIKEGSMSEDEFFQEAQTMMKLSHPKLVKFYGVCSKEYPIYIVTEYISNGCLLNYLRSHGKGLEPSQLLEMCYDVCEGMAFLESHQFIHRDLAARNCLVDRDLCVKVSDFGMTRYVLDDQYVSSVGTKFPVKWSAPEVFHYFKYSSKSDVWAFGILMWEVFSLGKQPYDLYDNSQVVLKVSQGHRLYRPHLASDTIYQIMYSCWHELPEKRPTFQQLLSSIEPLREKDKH

[6] = molecular target: Receptor tyrosine-protein kinase erbB-4 (Homo sapiens) (UniProt Q15303); assay: Inhibition of recombinant truncated human His/IgG1 Fc-tagged ERBB4 expressed in mammalian expression system at 1 uM by Z'-LYTE assay
[7] = test system: Epidermal growth factor receptor (Homo sapiens), P00533 [L858R,T790M]; conditions: 1 uM
Chain of Epidermal growth factor receptor (Homo sapiens), P00533 [L858R,T790M] (P00533 whole entry T790M/L858R, looked up, the tested form may be a part): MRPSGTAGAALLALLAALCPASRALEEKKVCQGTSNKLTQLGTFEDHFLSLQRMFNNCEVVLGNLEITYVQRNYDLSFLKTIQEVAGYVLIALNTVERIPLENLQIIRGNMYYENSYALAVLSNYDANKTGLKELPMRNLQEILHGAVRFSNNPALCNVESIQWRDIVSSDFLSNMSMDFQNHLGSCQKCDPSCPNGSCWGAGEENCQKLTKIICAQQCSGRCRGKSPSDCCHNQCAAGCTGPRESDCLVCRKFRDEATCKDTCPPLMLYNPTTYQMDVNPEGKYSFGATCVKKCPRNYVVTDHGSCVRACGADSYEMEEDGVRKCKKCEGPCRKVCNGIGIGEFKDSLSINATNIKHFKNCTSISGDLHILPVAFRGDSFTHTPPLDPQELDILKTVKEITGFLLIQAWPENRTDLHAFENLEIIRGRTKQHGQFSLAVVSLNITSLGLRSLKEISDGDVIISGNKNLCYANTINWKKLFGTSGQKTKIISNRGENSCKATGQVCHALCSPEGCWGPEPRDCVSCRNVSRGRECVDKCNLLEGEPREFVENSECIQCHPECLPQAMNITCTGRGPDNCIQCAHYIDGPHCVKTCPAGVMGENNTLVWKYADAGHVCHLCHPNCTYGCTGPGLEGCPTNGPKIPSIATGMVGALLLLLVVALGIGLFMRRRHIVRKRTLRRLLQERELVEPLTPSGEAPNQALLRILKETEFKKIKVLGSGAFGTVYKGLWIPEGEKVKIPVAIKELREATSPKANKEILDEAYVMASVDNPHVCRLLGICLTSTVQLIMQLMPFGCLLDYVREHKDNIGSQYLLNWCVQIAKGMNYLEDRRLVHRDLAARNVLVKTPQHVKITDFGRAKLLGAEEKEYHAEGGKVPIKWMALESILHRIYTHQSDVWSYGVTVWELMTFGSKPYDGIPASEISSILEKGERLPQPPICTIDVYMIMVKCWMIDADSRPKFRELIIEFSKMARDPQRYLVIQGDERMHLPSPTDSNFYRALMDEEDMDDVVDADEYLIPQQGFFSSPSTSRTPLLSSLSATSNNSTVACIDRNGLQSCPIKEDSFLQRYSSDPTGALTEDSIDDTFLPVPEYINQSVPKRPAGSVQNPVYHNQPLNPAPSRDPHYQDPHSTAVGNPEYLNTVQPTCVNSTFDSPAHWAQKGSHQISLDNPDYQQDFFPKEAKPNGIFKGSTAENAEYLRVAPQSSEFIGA

[8] = test system: Epidermal growth factor receptor (Homo sapiens), P00533 [L858R,T790M]; conditions: 100 nM
[9] = molecular target: T3, Epidermal growth factor receptor (Homo sapiens, UniProt P00533, L858R)
Target sequence in this assay (P00533 25-1210 L858R limits assumed): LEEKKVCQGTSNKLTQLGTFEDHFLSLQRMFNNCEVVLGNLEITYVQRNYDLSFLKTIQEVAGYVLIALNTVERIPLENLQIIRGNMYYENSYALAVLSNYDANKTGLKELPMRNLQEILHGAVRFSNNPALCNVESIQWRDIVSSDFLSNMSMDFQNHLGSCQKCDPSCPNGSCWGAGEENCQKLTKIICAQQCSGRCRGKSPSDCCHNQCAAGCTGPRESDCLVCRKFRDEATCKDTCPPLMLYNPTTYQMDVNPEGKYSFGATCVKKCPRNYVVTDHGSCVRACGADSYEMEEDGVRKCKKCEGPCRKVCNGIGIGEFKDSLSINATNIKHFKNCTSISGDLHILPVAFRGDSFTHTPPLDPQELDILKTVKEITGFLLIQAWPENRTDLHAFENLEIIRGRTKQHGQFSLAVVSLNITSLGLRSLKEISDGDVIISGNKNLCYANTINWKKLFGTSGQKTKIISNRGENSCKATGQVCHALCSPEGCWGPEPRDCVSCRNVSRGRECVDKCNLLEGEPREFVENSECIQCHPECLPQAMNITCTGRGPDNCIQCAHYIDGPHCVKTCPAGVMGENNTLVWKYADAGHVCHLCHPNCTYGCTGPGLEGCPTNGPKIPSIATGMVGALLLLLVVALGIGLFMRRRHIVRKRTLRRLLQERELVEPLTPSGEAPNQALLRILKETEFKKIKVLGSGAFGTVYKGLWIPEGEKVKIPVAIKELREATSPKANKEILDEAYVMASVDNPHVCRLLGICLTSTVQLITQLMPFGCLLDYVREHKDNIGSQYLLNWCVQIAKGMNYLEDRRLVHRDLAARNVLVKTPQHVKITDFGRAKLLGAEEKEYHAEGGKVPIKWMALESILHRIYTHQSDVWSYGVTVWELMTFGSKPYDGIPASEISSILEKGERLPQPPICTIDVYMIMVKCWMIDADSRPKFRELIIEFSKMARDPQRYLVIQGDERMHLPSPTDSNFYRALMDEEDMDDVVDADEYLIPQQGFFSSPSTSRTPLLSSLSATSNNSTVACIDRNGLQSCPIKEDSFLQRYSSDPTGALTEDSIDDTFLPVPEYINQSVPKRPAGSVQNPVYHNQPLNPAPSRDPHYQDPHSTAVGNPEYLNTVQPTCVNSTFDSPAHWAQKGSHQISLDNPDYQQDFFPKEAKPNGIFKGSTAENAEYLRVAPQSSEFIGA

[10] = Stability in human plasma assessed as compound remaining at 5 uM after 1 hr by LCMS analysis; type: ADME, cell-free; conditions: read-out: Stability
[11] = molecular target: T1, Epidermal growth factor receptor; assay: Reversible inhibition of wild-type human N-terminal GST-tagged EGFR cytoplasmic domain (669 to 1210 end amino acid residues) expressed in baculovirus expression system using TK peptide substrate preincubated for 2 to 90 mins followed by 6-fold dilution
[12] = test system: Epidermal growth factor receptor (Homo sapiens), P00533 [L858R,T790M]
[13] = molecular target: T3, Epidermal growth factor receptor; assay: Reversible inhibition of human N-terminal GST-tagged EGFR L858R mutant cytoplasmic domain (669 to 1210 end amino acid residues) expressed in baculovirus expression system using TK peptide substrate preincubated for 2 to 90 mins followed by 6-fold dilution
[14] = test system: Epidermal growth factor receptor (Homo sapiens), P00533 [L858R,T790M]; conditions: 100 nM; remark: listed apart in the source
[15] = molecular target: T4, Tyrosine-protein kinase JAK3 (Homo sapiens) (UniProt P52333); assay: Inhibition of recombinant human GST-tagged cytoplasmic JAK3 (781 to 1124 amino acid residues) catalytic domain expressed in baculovirus expression system at 1 uM by Z'-LYTE assay
T4 sequence (whole entry): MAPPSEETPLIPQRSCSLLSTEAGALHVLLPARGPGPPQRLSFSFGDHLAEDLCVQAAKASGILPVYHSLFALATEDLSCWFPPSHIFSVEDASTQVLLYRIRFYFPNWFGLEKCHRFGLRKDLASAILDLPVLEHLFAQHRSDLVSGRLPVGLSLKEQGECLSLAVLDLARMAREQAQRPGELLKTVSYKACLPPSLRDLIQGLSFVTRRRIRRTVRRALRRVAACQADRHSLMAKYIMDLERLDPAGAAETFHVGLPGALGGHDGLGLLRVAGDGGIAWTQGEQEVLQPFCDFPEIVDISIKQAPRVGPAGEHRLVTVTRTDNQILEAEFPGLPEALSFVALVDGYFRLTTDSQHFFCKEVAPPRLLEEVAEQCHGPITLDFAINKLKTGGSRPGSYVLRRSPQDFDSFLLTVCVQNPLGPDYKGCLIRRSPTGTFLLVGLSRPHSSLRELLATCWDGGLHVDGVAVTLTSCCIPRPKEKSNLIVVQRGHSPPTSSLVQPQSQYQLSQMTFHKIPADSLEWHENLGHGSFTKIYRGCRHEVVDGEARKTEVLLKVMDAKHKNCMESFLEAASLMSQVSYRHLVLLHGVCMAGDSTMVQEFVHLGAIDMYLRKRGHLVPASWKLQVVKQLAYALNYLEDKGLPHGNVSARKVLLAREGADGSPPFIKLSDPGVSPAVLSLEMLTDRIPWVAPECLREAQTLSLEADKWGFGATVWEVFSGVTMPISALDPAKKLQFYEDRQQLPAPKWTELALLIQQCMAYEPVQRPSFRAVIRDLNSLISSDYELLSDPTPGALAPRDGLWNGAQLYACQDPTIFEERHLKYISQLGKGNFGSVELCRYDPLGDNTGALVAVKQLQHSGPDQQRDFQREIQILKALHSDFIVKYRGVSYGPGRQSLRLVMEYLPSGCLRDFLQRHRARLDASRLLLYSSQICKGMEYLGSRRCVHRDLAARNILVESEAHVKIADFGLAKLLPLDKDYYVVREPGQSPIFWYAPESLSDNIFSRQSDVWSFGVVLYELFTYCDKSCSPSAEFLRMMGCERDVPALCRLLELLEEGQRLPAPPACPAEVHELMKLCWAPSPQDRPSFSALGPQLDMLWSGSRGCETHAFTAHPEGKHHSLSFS

T1 sequence (P00533 whole entry): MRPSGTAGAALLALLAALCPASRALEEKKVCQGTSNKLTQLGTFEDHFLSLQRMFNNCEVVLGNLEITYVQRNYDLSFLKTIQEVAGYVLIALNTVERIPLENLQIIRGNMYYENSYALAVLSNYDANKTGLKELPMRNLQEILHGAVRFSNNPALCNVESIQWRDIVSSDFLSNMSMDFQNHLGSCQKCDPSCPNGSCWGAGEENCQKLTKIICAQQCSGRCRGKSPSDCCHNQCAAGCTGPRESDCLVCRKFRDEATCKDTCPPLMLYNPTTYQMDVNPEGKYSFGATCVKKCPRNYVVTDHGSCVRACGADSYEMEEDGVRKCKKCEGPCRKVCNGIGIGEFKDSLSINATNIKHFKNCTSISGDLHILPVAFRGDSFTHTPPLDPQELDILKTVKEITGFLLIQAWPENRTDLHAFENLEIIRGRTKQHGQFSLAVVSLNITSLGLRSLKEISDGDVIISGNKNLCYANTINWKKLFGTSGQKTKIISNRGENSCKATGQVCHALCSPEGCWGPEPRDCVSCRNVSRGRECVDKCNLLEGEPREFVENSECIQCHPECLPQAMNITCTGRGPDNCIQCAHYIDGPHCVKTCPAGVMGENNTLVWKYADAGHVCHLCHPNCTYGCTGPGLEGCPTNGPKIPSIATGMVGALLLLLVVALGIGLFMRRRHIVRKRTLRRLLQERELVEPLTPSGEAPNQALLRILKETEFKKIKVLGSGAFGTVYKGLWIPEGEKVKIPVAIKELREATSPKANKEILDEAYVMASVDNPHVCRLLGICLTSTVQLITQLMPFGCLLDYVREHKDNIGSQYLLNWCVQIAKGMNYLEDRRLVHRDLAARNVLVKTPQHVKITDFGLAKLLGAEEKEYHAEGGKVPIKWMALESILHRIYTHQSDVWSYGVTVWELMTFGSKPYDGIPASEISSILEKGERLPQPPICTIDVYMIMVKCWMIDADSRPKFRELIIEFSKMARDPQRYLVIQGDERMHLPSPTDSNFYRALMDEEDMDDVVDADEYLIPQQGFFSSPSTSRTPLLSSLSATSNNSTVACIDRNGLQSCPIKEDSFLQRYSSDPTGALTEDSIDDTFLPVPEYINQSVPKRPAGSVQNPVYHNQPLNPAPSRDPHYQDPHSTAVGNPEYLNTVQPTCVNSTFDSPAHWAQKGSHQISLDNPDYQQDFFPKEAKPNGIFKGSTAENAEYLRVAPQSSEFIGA

## C=CC(=O)Nc1cc(Nc2n[nH]c3cc(Nc4cccc(F)c4)ccc23)c(OC)cc1N(C)CCN(C)C
[1]
  IC50: < 1 nM
[2]
  inhibition: > 85%
[3]
  inhibition: > 95%
[4]
  inhibition: > 95%
Liver
  Stability: Stable
[5]
  inhibition: > 85%
[6]
  inhibition: Active
[7]
  inhibition: > 95%
[8]
  inhibition: Active
[9]
  IC50: < 1 nM
[10]
  remaining at 1 h, 5 µM: > 75%
[11]
  Ki: 5.1 nM
[12]
  Kinact: 0.17 min⁻¹
[13]
  Ki: 3.9 nM
[14]
  inhibition: Active
[15]
  inhibition: > 85%
